In the CheMixHub ionic liquid set:

Experiment: xn = mol fraction of the nth substance listed
Conditions: 100 kPa

CC[N+](CC)(CC)CC.F[B-](F)(F)F + CC#N
Conditions | electrical conductivity [S/m] | viscosity [mPa·s]
293.15 K, x1 = 0.004202 | – | 0.42
293.15 K, x1 = 0.008244 | – | 0.438
293.15 K, x1 = 0.01214 | – | 0.455
293.15 K, x1 = 0.0162 | – | 0.474
293.15 K, x1 = 0.02 | 2.88 | –
293.15 K, x1 = 0.0201 | – | 0.484
293.15 K, x1 = 0.02405 | – | 0.506
293.15 K, x1 = 0.02791 | – | 0.531
293.15 K, x1 = 0.0301 | 3.6 | –
293.15 K, x1 = 0.03183 | – | 0.55
293.15 K, x1 = 0.03568 | – | 0.573
293.15 K, x1 = 0.03943 | – | 0.593
293.15 K, x1 = 0.0499 | 4.6 | –
293.15 K, x1 = 0.0698 | 5.04 | –
293.15 K, x1 = 0.08 | 5.32 | –
293.15 K, x1 = 0.1 | 5.56 | –
293.15 K, x1 = 0.1101 | 5.58 | –
298.15 K, x1 = 0.004202 | – | 0.401
298.15 K, x1 = 0.008244 | – | 0.417
298.15 K, x1 = 0.01214 | – | 0.435
298.15 K, x1 = 0.0162 | – | 0.452
298.15 K, x1 = 0.02 | 2.99 | –
298.15 K, x1 = 0.0201 | – | 0.46
298.15 K, x1 = 0.02405 | – | 0.48
298.15 K, x1 = 0.02791 | – | 0.507
298.15 K, x1 = 0.0301 | 3.65 | –
298.15 K, x1 = 0.03183 | – | 0.525
298.15 K, x1 = 0.03568 | – | 0.546
298.15 K, x1 = 0.03943 | – | 0.566
298.15 K, x1 = 0.0499 | 4.78 | –
298.15 K, x1 = 0.0698 | 5.24 | –
298.15 K, x1 = 0.08 | 5.59 | –
298.15 K, x1 = 0.1 | 5.85 | –
298.15 K, x1 = 0.1101 | 5.88 | –
303.15 K, x1 = 0.004202 | – | 0.383
303.15 K, x1 = 0.008244 | – | 0.399
303.15 K, x1 = 0.01214 | – | 0.415
303.15 K, x1 = 0.0162 | – | 0.432
303.15 K, x1 = 0.02 | 3.11 | –
303.15 K, x1 = 0.0201 | – | 0.438
303.15 K, x1 = 0.02405 | – | 0.457
303.15 K, x1 = 0.02791 | – | 0.484
303.15 K, x1 = 0.0301 | 3.74 | –
303.15 K, x1 = 0.03183 | – | 0.501
303.15 K, x1 = 0.03568 | – | 0.521
303.15 K, x1 = 0.03943 | – | 0.541
303.15 K, x1 = 0.0499 | 4.98 | –
303.15 K, x1 = 0.0698 | 5.48 | –
303.15 K, x1 = 0.08 | 5.85 | –
303.15 K, x1 = 0.1 | 6.14 | –
303.15 K, x1 = 0.1101 | 6.18 | –
308.15 K, x1 = 0.004202 | – | 0.367
308.15 K, x1 = 0.008244 | – | 0.381
308.15 K, x1 = 0.01214 | – | 0.397
308.15 K, x1 = 0.0162 | – | 0.413
308.15 K, x1 = 0.02 | 3.22 | –
308.15 K, x1 = 0.0201 | – | 0.419
308.15 K, x1 = 0.02405 | – | 0.436
308.15 K, x1 = 0.02791 | – | 0.463
308.15 K, x1 = 0.0301 | 3.88 | –
308.15 K, x1 = 0.03183 | – | 0.478
308.15 K, x1 = 0.03568 | – | 0.497
308.15 K, x1 = 0.03943 | – | 0.517
308.15 K, x1 = 0.0499 | 5.18 | –
308.15 K, x1 = 0.0698 | 5.71 | –
308.15 K, x1 = 0.08 | 6.11 | –
308.15 K, x1 = 0.1 | 6.43 | –
308.15 K, x1 = 0.1101 | 6.48 | –
313.15 K, x1 = 0.004202 | – | 0.352
313.15 K, x1 = 0.008244 | – | 0.365
313.15 K, x1 = 0.01214 | – | 0.381
313.15 K, x1 = 0.0162 | – | 0.396
313.15 K, x1 = 0.02 | 3.33 | –
313.15 K, x1 = 0.0201 | – | 0.4
313.15 K, x1 = 0.02405 | – | 0.417
313.15 K, x1 = 0.02791 | – | 0.442
313.15 K, x1 = 0.0301 | 4.03 | –
313.15 K, x1 = 0.03183 | – | 0.457
313.15 K, x1 = 0.03568 | – | 0.474
313.15 K, x1 = 0.03943 | – | 0.494
313.15 K, x1 = 0.0499 | 5.38 | –
313.15 K, x1 = 0.0698 | 5.95 | –
313.15 K, x1 = 0.08 | 6.36 | –
313.15 K, x1 = 0.1 | 6.72 | –
313.15 K, x1 = 0.1101 | 6.78 | –
318.15 K, x1 = 0.004202 | – | 0.338
318.15 K, x1 = 0.008244 | – | 0.35
318.15 K, x1 = 0.01214 | – | 0.365
318.15 K, x1 = 0.0162 | – | 0.38
318.15 K, x1 = 0.02 | 3.44 | –
318.15 K, x1 = 0.0201 | – | 0.383
318.15 K, x1 = 0.02405 | – | 0.399
318.15 K, x1 = 0.02791 | – | 0.423
318.15 K, x1 = 0.0301 | 4.17 | –
318.15 K, x1 = 0.03183 | – | 0.437
318.15 K, x1 = 0.03568 | – | 0.454
318.15 K, x1 = 0.03943 | – | 0.474
318.15 K, x1 = 0.0499 | 5.58 | –
318.15 K, x1 = 0.0698 | 6.18 | –
318.15 K, x1 = 0.08 | 6.59 | –
318.15 K, x1 = 0.1 | 7.01 | –
318.15 K, x1 = 0.1101 | 7.08 | –
323.15 K, x1 = 0.004202 | – | 0.326
323.15 K, x1 = 0.008244 | – | 0.337
323.15 K, x1 = 0.01214 | – | 0.35
323.15 K, x1 = 0.0162 | – | 0.364
323.15 K, x1 = 0.02 | 3.54 | –
323.15 K, x1 = 0.0201 | – | 0.367
323.15 K, x1 = 0.02405 | – | 0.383
323.15 K, x1 = 0.02791 | – | 0.405
323.15 K, x1 = 0.0301 | 4.32 | –
323.15 K, x1 = 0.03183 | – | 0.418
323.15 K, x1 = 0.03568 | – | 0.435
323.15 K, x1 = 0.03943 | – | 0.455
323.15 K, x1 = 0.0499 | 5.77 | –
323.15 K, x1 = 0.0698 | 6.41 | –
323.15 K, x1 = 0.08 | 6.84 | –
323.15 K, x1 = 0.1 | 7.27 | –
323.15 K, x1 = 0.1101 | 7.38 | –
328.15 K, x1 = 0.02 | 3.65 | –
328.15 K, x1 = 0.0301 | 4.46 | –
328.15 K, x1 = 0.0499 | 5.96 | –
328.15 K, x1 = 0.0698 | 6.63 | –
328.15 K, x1 = 0.08 | 7.08 | –
328.15 K, x1 = 0.1 | 7.56 | –
328.15 K, x1 = 0.1101 | 7.68 | –
333.15 K, x1 = 0.02 | 3.75 | –
333.15 K, x1 = 0.0301 | 4.59 | –
333.15 K, x1 = 0.0499 | 6.15 | –
333.15 K, x1 = 0.0698 | 6.86 | –
333.15 K, x1 = 0.08 | 7.33 | –
333.15 K, x1 = 0.1 | 7.83 | –
333.15 K, x1 = 0.1101 | 8.01 | –
338.15 K, x1 = 0.02 | 3.85 | –
338.15 K, x1 = 0.0301 | 4.73 | –
338.15 K, x1 = 0.0499 | 6.34 | –
338.15 K, x1 = 0.0698 | 7.08 | –
338.15 K, x1 = 0.08 | 7.57 | –
338.15 K, x1 = 0.1 | 8.15 | –
338.15 K, x1 = 0.1101 | 8.28 | –
343.15 K, x1 = 0.02 | 3.95 | –
343.15 K, x1 = 0.0301 | 4.86 | –
343.15 K, x1 = 0.0499 | 6.52 | –
343.15 K, x1 = 0.0698 | 7.29 | –
343.15 K, x1 = 0.08 | 7.8 | –
343.15 K, x1 = 0.1 | 8.43 | –
343.15 K, x1 = 0.1101 | 8.57 | –
348.15 K, x1 = 0.02 | 4.04 | –
348.15 K, x1 = 0.0301 | 4.99 | –
348.15 K, x1 = 0.0499 | 6.7 | –
348.15 K, x1 = 0.0698 | 7.51 | –
348.15 K, x1 = 0.08 | 8.04 | –
348.15 K, x1 = 0.1 | 8.73 | –
348.15 K, x1 = 0.1101 | 8.84 | –
